The term EC50 denotes the concentration needed to bring the measured effect to its halfway point. High values mean weaker potency, low ones greater potency. The term Ki denotes the equilibrium dissociation constant of an inhibitor or competing ligand from its target. Read a high Ki as a looser hold on the target.

Assay [1] concerns lymphocytes. Kind of assay: Lymphocyte reduction in C57BL/6 mice. The assay is classed as in vivo. The note with it: Mus musculus, ip. How it is done:
An experiment was performed to evaluate the effect of Bcl-2 selective/Bcl-xL sparing compounds on immune cells and platelets, as evaluated in C57Bl/6 mice. Mice were treated four days with compounds (doses of 30 mg/kg, administered by intraperitoneal injection every day) and cell numbers were measured with a Cell Dyn hematology analyzer 24 hours after the first and last doses. Exposure of the compound (area under the curve) was calculated by using time points of 1, 6, 10 and 24 hours after the last dose.

For assay [2], the system named is RS4;11 cells. Kind of assay: RS4;11 cell viability assay (CellTiter Glo). The assay is classed as cell-based. The conditions noted are these: 10% human serum, 48 hours. The source says:
The acute lymphoblastic leukemia (ALL) cell line RS4;11 was used as the primary human cell line to assess the cellular activity of Bcl-2 selective agents in vitro and their efficacy in vivo. Previous studies have shown by BH3 profiling, a mitochondrial assay that classifies blocks in the intrinsic apoptotic pathway, that RS4;11 cells were highly dependant on BCL-2 for survival and sensitive to the Bcl-2 family member inhibitor ABT-737 (Blood, 2008, Vol. 111, 2300-2309).
RS4;11 cells were cultured in RPMI-1640 supplemented with 2 mM L-glutamine, 10% FBS, 1 mM sodium pyruvate, 2 mM HEPES, 1% penicillin/streptomycin (Invitrogen), 4.5 g/L glucose and maintained at 37 C containing 5% CO2. To test for the cellular activity of compounds in vitro, cells were treated at 50,000 cells per well in 96-well microtiter plates in the presence of 10% human serum for 48 hours in a humidified chamber with 5% CO2. Cell cytotoxicity EC50 values were assessed using CellTiter Glo (Promega) according to the manufacturer's recommendations. The EC50 values were determined as a percentage of viable cells following treatment compared to the untreated control cells.
(In general: ATP-based viability assays read luminescence as a measure of living cells.)

For assay [3], the target named is GST-Bcl-2 (Homo sapiens, UniProt P10415). Kind of assay: TR-FRET Bcl-2 binding assay (F-Bak peptide probe). The note with it: GST-Bcl-2 1 nM, F-Bak peptide probe 100 nM, Tb-anti-GST 1 nM; Wang's equation; '<' = below limit of detection. How it is done:
Determination of the utility of compounds of this invention as binders to and inhibitors of anti-apoptotic Bcl-2 proteins was performed using the Time Resolved-Fluorescence Resonance Energy Transfer (TR-FRET) Assay. Tb-anti-GST antibody was purchased from Invitrogen (Catalog No. PV4216).
Representative compounds were serially diluted in dimethyl sulfoxide (DMSO) starting at 50 μM (2× starting concentration; 10% DMSO) and 10 μL were transferred into a 384-well plate. The samples are then mixed on a shaker for 1 minute and incubated for an additional 3 hours at room temperature. For each assay, the probe/antibody and protein/probe/antibody were included on each assay plate as negative and positive controls, respectively. Fluorescence was measured on the Envision (Perkin Elmer) using a 340/35 nm excitation filter and 520/525 (F-Bak peptide) and 495/510 nm (Tb-labeled […] antibody) emission filters. Dissociation constants (Ki) are shown in TABLE 2 below and were determined using Wang's equation (Wang Z.-X., An Exact Mathematical Expression For Describing Competitive Binding Of Two Different Ligands To A Protein Molecule. FEBS Lett. 1995, 360:111-4).
The samples were then mixed on a shaker for 1 minute and incubated for an additional 3 hours at room temperature. For each assay, the probe/antibody and protein/probe/antibody were included on each assay plate as negative and positive controls, respectively. Fluorescence was measured on the Envision (Perkin Elmer) using a 340/35 nm excitation filter and 520/525 (F-Bak peptide) and 495/510 nm (Tb-labeled anti-Histidine antibody) emission filters.
Inhibition constants (Ki) for compounds were determined using Wang's equation (Wang Zx. An Exact Mathematical Expression For Describing Competitive Binding Of Two Different Ligands To A Protein Molecule. FEBS Lett. 1995, 360:111-4).
The inhibition constant (Ki) is the dissociation constant of an enzyme-inhibitor complex or a protein/small molecule complex, wherein the small molecule is inhibiting binding of one protein to another protein or peptide. So a large Ki value indicates a low binding affinity and a small Ki value indicates a high binding affinity. […] The compounds are therefore expected to have utility in treatment of diseases during which anti-apoptotic Bcl-2 protein is expressed. Biological Data
On the technique in general: Time-resolved FRET reads energy transfer from a long-lived donor to a nearby acceptor.

Setting [4] is: 30 mg/kg intraperitoneal every day for four days, 24 hours after the last dose, read-out: Lymphocyte reduction % inh. day 4.
[5] abbreviates: 30 mg/kg intraperitoneal every day, 24 hours after the first dose, read-out: Lymphocyte reduction % inh. day 1.

Read-outs that look alike come from different tables or passages of the source.

Chain of GST-Bcl-2 (P10415 whole entry): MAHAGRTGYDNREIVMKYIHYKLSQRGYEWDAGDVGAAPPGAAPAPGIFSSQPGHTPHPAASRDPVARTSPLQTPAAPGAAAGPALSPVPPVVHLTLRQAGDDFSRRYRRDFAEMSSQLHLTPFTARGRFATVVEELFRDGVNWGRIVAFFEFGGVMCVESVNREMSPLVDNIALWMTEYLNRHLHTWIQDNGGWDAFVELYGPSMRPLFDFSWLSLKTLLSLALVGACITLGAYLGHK

Regarding `C[C@H](Nc1ccc(S(=O)(=O)NC(=O)c2ccc(N3CCN(CC4=C(c5ccc(Cl)cc5)CC(C)(C)CC4)CC3)cc2Oc2cnc3[nH]ccc3c2)cc1[N+](=O)[O-])C1CCOCC1` [Example 2, 4-(4-{[2-(4-chlorophenyl)-4,4-dimethylcyclohex-1-en-1-yl]methyl}piperazin-1-yl)-N-[(3-nitro-4-{[(1S)-1-(tetrahydro-2H-pyran-4-yl)ethyl]amino}phenyl)sulfonyl]-2-(1H-pyrrolo[2,3-b]pyridin-5-yloxy)benzamide], the inhibition at 30 mg/kg in assay [1] (setting [4]) and in assay [1] (setting [5]) was less than 15% in each case. The same molecule registered a half-maximal effective concentration (EC50) in assay [2] of 160 nM. As for `CC1(C)CCC(CN2CCN(c3ccc(C(=O)NS(=O)(=O)c4ccc(NC[C@H]5CC[C@]6(CCCO6)CC5)c([N+](=O)[O-])c4)c(Oc4cnc5[nH]ccc5c4)c3)CC2)=C(c2ccc(Cl)cc2)C1` [Example 4, 4-(4-{[2-(4-chlorophenyl)-4,4-dimethylcyclohex-1-en-1-yl]methyl}piperazin-1-yl)-N-[(3-nitro-4-{[(5S,8S)-1-oxaspiro[4.5]dec-8-ylmethyl]amino}phenyl)sulfonyl]-2-(1H-pyrrolo[2,3-b]pyridin-5-yloxy)benzamide], in assay [2], the 50% effective concentration (EC50) was determined as 57 nM. In addition, the Ki in assay [3] is less than 0.1 nM. As for `CC1(C)CCC(CN2CCN(c3ccc(C(=O)NS(=O)(=O)c4ccc(NCC5CCC6(CC5)OCCO6)c([N+](=O)[O-])c4)c(Oc4cnc5[nH]ccc5c4)c3)CC2)=C(c2ccc(Cl)cc2)C1` [Example 7, 4-(4-{[2-(4-chlorophenyl)-4,4-dimethylcyclohex-1-en-1-yl]methyl}piperazin-1-yl)-N-({4-[(1,4-dioxaspiro[4.5]dec-8-ylmethyl)amino]-3-nitrophenyl}sulfonyl)-2-(1H-pyrrolo[2,3-b]pyridin-5-yloxy)benzamide], the inhibition at 30 mg/kg turned out to be 55% in assay [1] (setting [4]) and 64% in assay [1] (setting [5]). Also, the concentration for a half-maximal effect (EC50) in assay [2] turned out to be 6.8 nM.

Regarding `CC1(C)CCC(CN2CCN(c3ccc(C(=O)NS(=O)(=O)c4ccc(NC56CC7CC(CC(O)(C7)C5)C6)c([N+](=O)[O-])c4)c(Oc4cnc5[nH]ccc5c4)c3)CC2)=C(c2ccc(Cl)cc2)C1` [Example 13, 4-(4-{[2-(4-chlorophenyl)-4,4-dimethylcyclohex-1-en-1-yl]methyl}piperazin-1-yl)-N-({4-[(3-hydroxytricyclo[3.3.1.1^3,7]dec-1-yl)amino]-3-nitrophenyl}sulfonyl)-2-(1H-pyrrolo[2,3-b]pyridin-5-yloxy)benzamide], in assay [2], the EC50 was found to be 130 nM. The same measure, in the same setting: under `COC(=O)C1(CNc2ccc(S(=O)(=O)NC(=O)c3ccc(N4CCN(CC5=C(c6ccc(Cl)cc6)CC(C)(C)CC5)CC4)cc3Oc3cnc4[nH]ccc4c3)cc2[N+](=O)[O-])CCOCC1` [Example 17, methyl 4-{[(4-{[4-(4-{[2-(4-chlorophenyl)-4,4-dimethylcyclohex-1-en-1-yl]methyl}piperazin-1-yl)-2-(1H-pyrrolo[2,3-b]pyridin-5-yloxy)benzoyl]sulfamoyl}-2-nitrophenyl)amino]methyl}tetrahydro-2H-pyran-4-carboxylate] stands 85 nM.

As for `CC1(C)CCC(CN2CCN(c3ccc(C(=O)NS(=O)(=O)c4ccc(NC[C@@H]5CCCOCC5)c([N+](=O)[O-])c4)c(Oc4cnc5[nH]ccc5c4)c3)CC2)=C(c2ccc(Cl)cc2)C1` [Example 19, 4-(4-{[2-(4-chlorophenyl)-4,4-dimethylcyclohex-1-en-1-yl]methyl}piperazin-1-yl)-N-[(3-nitro-4-{[(4R)-oxepan-4-ylmethyl]amino}phenyl)sulfonyl]-2-(1H-pyrrolo[2,3-b]pyridin-5-yloxy)benzamide], the inhibition at 30 mg/kg in assay [1] (setting [4]) worked out at 45%; in assay [1] (setting [5]), 49%. The molecule also yielded a 50% effective concentration (EC50) in assay [2] of 14 nM.

The molecule `CC1(C)CCC(CN2CCN(c3ccc(C(=O)NS(=O)(=O)c4ccc(NCC5(F)COCCOC5)c([N+](=O)[O-])c4)c(Oc4cnc5[nH]ccc5c4)c3)CC2)=C(c2ccc(Cl)cc2)C1` [Example 39, 4-(4-{[2-(4-chlorophenyl)-4,4-dimethylcyclohex-1-en-1-yl]methyl}piperazin-1-yl)-N-[(4-{[(6-fluoro-1,4-dioxepan-6-yl)methyl]amino}-3-nitrophenyl)sulfonyl]-2-(1H-pyrrolo[2,3-b]pyridin-5-yloxy)benzamide] had an EC50 in assay [2] of 40 nM. Regarding `CC1(C)CCC(CN2CCN(c3ccc(C(=O)NS(=O)(=O)c4ccc(NCC5CCOCC5)c([N+](=O)[O-])c4)c(Oc4cnc5[nH]ccc5c4)c3)CC2)=C(c2ccc(Cl)cc2F)C1` [Example 48, 4-(4-{[2-(4-chloro-2-fluorophenyl)-4,4-dimethylcyclohex-1-en-1-yl]methyl}piperazin-1-yl)-N-({3-nitro-4-[(tetrahydro-2H-pyran-4-ylmethyl)amino]phenyl}sulfonyl)-2-(1H-pyrrolo[2,3-b]pyridin-5-yloxy)benzamide], the inhibition at 30 mg/kg was 78% in assay [1] (setting [4]) and 76% in assay [1] (setting [5]). The EC50 in assay [2] came out at 3.3 nM. On to `CC1(C)CCC(CN2CCN(c3ccc(C(=O)NS(=O)(=O)c4ccc(NCC5CCOCC5)c([N+](=O)[O-])c4)c(Oc4cnc5[nH]ccc5c4)c3)CC2)=C(c2ccc(Cl)c(F)c2)C1` [Example 49, 4-(4-{[2-(4-chloro-3-fluorophenyl)-4,4-dimethylcyclohex-1-en-1-yl]methyl}piperazin-1-yl)-N-({3-nitro-4-[(tetrahydro-2H-pyran-4-ylmethyl)amino]phenyl}sulfonyl)-2-(1H-pyrrolo[2,3-b]pyridin-5-yloxy)benzamide], for which the midpoint of the response in assay [2], the EC50, lay at 46 nM.

Consider `CCC1(CNc2ccc(S(=O)(=O)NC(=O)c3ccc(N4CCN(CC5=C(c6ccc(Cl)cc6)CC(C)(C)CC5)CC4)cc3Oc3cnc4[nH]ccc4c3)cc2[N+](=O)[O-])CCOCC1` [Example 50, 4-(4-{[2-(4-chlorophenyl)-4,4-dimethylcyclohex-1-en-1-yl]methyl}piperazin-1-yl)-N-[(4-{[(4-ethyltetrahydro-2H-pyran-4-yl)methyl]amino}-3-nitrophenyl)sulfonyl]-2-(1H-pyrrolo[2,3-b]pyridin-5-yloxy)benzamide], for which, in assay [2], the 50% effective concentration (EC50) was found to be 52 nM.

Take `CC1(C)CCC(CN2CCN(c3ccc(C(=O)NS(=O)(=O)c4ccc(NCC5CCOCC5)c([N+](=O)[O-])c4)c(Oc4cnc5[nH]ccc5c4)c3)CC2)=C(c2ccc(C3CC3)cc2)C1` [Example 52, 4-(4-{[2-(4-cyclopropylphenyl)-4,4-dimethylcyclohex-1-en-1-yl]methyl}piperazin-1-yl)-N-({3-nitro-4-[(tetrahydro-2H-pyran-4-ylmethyl)amino]phenyl}sulfonyl)-2-(1H-pyrrolo[2,3-b]pyridin-5-yloxy)benzamide]: the inhibition at 30 mg/kg is 51% in assay [1] (setting [4]) and 54% in assay [1] (setting [5]). Moreover, a half-maximal effect in assay [2] (EC50) was put at 16 nM. For the molecule `CC1(C)CCC(CN2CCN(c3ccc(C(=O)NS(=O)(=O)c4ccc(NCC5CCOCC5)c([N+](=O)[O-])c4)c(Oc4cnc5[nH]ccc5c4)c3)CC2)=C(c2ccc(C(F)F)cc2)C1` [Example 54, 4-[4-({2-[4-(difluoromethyl)phenyl]-4,4-dimethylcyclohex-1-en-1-yl}methyl)piperazin-1-yl]-N-({3-nitro-4-[(tetrahydro-2H-pyran-4-ylmethyl)amino]phenyl}sulfonyl)-2-(1H-pyrrolo[2,3-b]pyridin-5-yloxy)benzamide], a half-maximal response in assay [2] (EC50) required 9.9 nM.

The values are drawn from patent publication US10081628B2, “Apoptosis-inducing agents for the treatment of cancer and immune and autoimmune diseases” (AbbVie Inc., priority 2013, dated 2018).
